Results on 16 compounds are retold here after ChEMBL document CHEMBL5620419, “Discovery of new Lenalidomide derivatives as potent and selective GSPT1 degraders” (Eur J Med Chem, 2023).

Some results are limits rather than exact numbers.

This test concerns the target Protein cereblon/Eukaryotic peptide chain release factor GTP-binding subunit ERF3A (Homo sapiens, UniProt P15170+Q96SW2). The test is described as follows: PROTAC activity at CRBN/GSPT1 in human U-937 cells assessed as degradation of GSPT1 measured after 6 hrs by Western blot analysis. It counts as cell-based.

Sequence of Protein cereblon/Eukaryotic peptide chain release factor GTP-binding subunit ERF3A (Q96SW2 whole entry): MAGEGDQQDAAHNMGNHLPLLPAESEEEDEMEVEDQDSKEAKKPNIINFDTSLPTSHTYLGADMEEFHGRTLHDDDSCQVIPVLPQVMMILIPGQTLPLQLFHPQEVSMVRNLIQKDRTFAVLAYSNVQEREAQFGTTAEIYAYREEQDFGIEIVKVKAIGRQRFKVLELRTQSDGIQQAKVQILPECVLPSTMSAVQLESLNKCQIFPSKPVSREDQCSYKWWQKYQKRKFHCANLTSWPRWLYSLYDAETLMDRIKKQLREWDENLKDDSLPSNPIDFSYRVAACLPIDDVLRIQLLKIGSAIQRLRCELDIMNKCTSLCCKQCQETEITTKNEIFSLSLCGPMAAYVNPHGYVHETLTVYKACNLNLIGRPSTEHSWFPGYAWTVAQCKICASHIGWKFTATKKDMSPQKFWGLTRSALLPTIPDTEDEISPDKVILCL
Sequence of Protein cereblon/Eukaryotic peptide chain release factor GTP-binding subunit ERF3A (P15170 whole entry): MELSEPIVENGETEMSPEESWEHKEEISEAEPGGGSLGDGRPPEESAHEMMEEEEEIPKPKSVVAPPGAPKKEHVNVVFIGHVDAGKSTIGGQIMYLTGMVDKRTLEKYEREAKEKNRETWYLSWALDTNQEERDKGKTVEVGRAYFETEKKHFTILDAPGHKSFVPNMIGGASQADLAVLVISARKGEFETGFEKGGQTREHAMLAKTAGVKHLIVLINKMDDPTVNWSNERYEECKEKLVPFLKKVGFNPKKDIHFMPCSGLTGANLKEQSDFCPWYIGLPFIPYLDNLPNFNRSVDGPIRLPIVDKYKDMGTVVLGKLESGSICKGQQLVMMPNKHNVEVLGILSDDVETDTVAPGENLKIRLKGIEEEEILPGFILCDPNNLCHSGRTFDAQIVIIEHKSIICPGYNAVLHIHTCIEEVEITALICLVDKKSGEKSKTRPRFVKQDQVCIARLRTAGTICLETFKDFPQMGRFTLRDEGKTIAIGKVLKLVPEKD

Regarding `Cc1c(Cl)cc(NC(=O)CCc2ccc3c(c2)C(=O)N(C2CCC(=O)NC2=O)C3)cc1CN1CC2(COC2)C1` (stereo unspecified), the concentration giving a half-maximal response (EC50) was 86 nM. The result for `Cc1ccc(NC(=O)/C=C/c2ccc3c(c2)C(=O)N(C2CCC(=O)NC2=O)C3)cc1Cl` (stereo unspecified) reads more than 10000 nM; that for `Cc1ccc(NC(=O)/C=C/c2cccc3c2CN(C2CCC(=O)NC2=O)C3=O)cc1Cl` (stereo unspecified), 3060 nM; that for `Cc1c(Cl)cc(NC(=O)CCc2ccc3c(c2)C(=O)N(C2CCC(=O)NC2=O)C3)cc1CN1CC(N2CCOCC2)C1` (stereo unspecified), 208 nM.

For `Cc1c(Cl)cc(NC(=O)CCc2ccc3c(c2)C(=O)N(C2CCC(=O)NC2=O)C3)cc1CN1CCN(C)CC1` (stereo unspecified), the concentration for a half-maximal effect (EC50) turned out to be 2200 nM.

As for `Cc1cc(NC(=O)CCc2ccc3c(c2)C(=O)N(C2CCC(=O)NC2=O)C3)ccc1Cl` (stereo unspecified), the EC50 came to 143 nM.

Consider `Cc1c(Cl)cc(NC(=O)CCc2ccc3c(c2)C(=O)N(C2CCC(=O)NC2=O)C3)cc1CN1CCN(C2CCOCC2)CC1` (stereo unspecified), for which the EC50 is 251 nM. The result for `Cc1ccc(NC(=O)CNc2ccc3c(c2)C(=O)N(C2CCC(=O)NC2=O)C3)cc1Cl` (stereo unspecified) reads more than 10000 nM; that for `Cc1c(Cl)cc(NC(=O)CCc2ccc3c(c2)C(=O)N(C2CCC(=O)NC2=O)C3)cc1CN1CCOCC1` (stereo unspecified), 48 nM; that for `Cc1ccc(NC(=O)COc2ccc3c(c2)C(=O)N(C2CCC(=O)NC2=O)C3)cc1Cl` (stereo unspecified), more than 10000 nM. As for `Cc1ccc(NC(=O)CC(C)c2ccc3c(c2)C(=O)N(C2CCC(=O)NC2=O)C3)cc1Cl` (stereo unspecified), the EC50 is more than 10000 nM. As to `Cc1cc(NC(=O)C(C)Cc2ccc3c(c2)CN(C2CCC(=O)NC2=O)C3=O)ccc1Cl` (stereo unspecified), the half-maximal effective concentration (EC50) was more than 10000 nM. Consider `Cc1ccc(NC(=O)CCc2ccc3c(c2)C(=O)N(C2CCC(=O)NC2=O)C3)cc1Cl` (stereo unspecified), for which the concentration for a half-maximal effect (EC50) amounted to 18 nM.

With `Cc1ccc(NC(=O)CCc2ccc3c(c2)C(=O)N(C2CCC(=O)NC2=O)C3=O)cc1Cl` (stereo unspecified), the concentration for a half-maximal effect (EC50) turned out to be 447 nM. Turning to `Cc1c(Cl)cc(NC(=O)CCc2ccc3c(c2)C(=O)N(C2CCC(=O)NC2=O)C3)cc1CN1CCN(C2COC2)CC1` (stereo unspecified), the EC50 was found to be 220 nM. Consider `Cc1c(Cl)cc(NC(=O)CCc2ccc3c(c2)C(=O)N(C2CCC(=O)NC2=O)C3)cc1CN1CCC(N2CCOCC2)CC1` (stereo unspecified), for which the EC50 turned out to be 176 nM.
